Assay: Urinary excretion of IPG P-type in diabetic patients treated with metformin
Format: in vivo, human
Settings: overweight/obese NIDDM patients on metformin, urine, FIGS. 5A,B
Description: A cross-sectional study was undertaken with random spot samples collected at outpatients clinics. The patients included NIDDM subjects controlled by diet alone, by sulphonylureas, by metformin, by insulin or a combination of any of these treatments. Only a limited number of IDDM subjects were available. In the present survey, male subjects were used, this avoided complications arising from varying hormone profiles in women of different ages, in particular with or without HRT or contraceptive pills. […] In addition to the measurement of IPG P-type and IPG A-type in urine the following clinical data was made available: […]

CN(C)C(=N)N=C(N)N [metformin]
effect on pattern of excretion of IPG P-type: fails to restore the pattern of excretion of IPG P-type to normal
